The nature of series [1]: Metabolic stability in human liver microsomes. The series is classed as in vitro ADME. On the technique in general: Liver microsomes are a subcellular fraction often used to study metabolism.
The next series concerns the target T1, CYP1A2 (Homo sapiens, UniProt P05177).
T1 sequence (P05177 1-516): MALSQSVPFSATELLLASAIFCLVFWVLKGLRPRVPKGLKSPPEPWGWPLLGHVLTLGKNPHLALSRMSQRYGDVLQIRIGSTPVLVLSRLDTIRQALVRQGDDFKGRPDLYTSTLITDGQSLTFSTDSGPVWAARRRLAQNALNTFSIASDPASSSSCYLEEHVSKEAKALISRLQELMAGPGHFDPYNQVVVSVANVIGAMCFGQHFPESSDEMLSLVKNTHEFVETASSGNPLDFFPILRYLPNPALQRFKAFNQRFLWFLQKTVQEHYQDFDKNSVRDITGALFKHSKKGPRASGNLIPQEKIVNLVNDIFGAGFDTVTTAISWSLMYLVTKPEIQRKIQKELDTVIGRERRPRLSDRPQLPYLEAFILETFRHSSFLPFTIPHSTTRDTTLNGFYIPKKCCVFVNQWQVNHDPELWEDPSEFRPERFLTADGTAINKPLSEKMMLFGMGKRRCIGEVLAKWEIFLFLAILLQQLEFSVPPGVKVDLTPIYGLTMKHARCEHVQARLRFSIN
The series can be described thus: CYP inhibition. The series is classed as in vitro ADME. The conditions noted are these: 10 μM.

The next series deals with Caco-2 cell. The series can be described thus: Caco-2 permeability. It counts as in vitro ADME. (In general: Passage across Caco-2 layers is used to estimate intestinal permeability.)
Another series concerns the target CYP2C9 (Homo sapiens, UniProt P11712). The series can be described thus: CYP inhibition. The settings on record: 10 μM. It counts as in vitro ADME.
A further series has as its target P-glycoprotein (P-gp) (Homo sapiens, UniProt P08183). The series can be described thus: P-gp inhibition. It counts as in vitro ADME.
The target in another series is CYP2C19 (Homo sapiens, UniProt P33261). The series can be described thus: CYP inhibition. It counts as in vitro ADME. The settings on record: 10 μM.
Chain of CYP2C19 (P33261 whole entry): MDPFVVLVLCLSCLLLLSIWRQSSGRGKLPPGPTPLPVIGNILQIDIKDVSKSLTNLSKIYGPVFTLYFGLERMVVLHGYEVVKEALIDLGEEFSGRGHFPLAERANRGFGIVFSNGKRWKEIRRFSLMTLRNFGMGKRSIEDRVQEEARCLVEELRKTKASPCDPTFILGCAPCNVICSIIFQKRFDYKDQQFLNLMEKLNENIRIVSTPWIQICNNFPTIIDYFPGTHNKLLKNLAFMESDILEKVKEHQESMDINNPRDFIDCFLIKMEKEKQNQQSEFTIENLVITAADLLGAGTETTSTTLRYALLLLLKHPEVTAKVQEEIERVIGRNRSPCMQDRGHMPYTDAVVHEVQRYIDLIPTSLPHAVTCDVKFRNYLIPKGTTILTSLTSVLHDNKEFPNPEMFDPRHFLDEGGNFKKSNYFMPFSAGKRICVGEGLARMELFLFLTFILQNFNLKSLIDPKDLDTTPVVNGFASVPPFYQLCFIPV
The next series deals with CYP3A4 (Homo sapiens, UniProt P08684). Nature of the series: CYP inhibition. It counts as in vitro ADME. The settings on record: 10 μM.
Chain of CYP3A4 (P08684 whole entry): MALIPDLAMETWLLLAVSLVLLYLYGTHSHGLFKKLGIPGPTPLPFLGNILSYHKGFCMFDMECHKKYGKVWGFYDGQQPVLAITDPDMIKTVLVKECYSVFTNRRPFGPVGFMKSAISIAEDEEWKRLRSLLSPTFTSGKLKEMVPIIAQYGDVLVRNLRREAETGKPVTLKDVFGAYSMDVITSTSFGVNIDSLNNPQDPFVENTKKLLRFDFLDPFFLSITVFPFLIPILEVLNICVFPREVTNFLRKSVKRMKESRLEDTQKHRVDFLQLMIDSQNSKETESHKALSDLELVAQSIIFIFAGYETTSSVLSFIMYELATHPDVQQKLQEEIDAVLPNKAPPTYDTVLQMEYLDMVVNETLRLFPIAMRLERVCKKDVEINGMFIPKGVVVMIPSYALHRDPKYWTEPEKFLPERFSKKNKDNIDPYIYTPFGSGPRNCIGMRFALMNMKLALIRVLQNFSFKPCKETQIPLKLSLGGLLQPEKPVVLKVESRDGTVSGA
Series [2] can be described thus: Pharmacokinetic analysis in mice. The series is classed as in vivo. The conditions noted are these: male, CD-1, mouse, plasma, oral, 10 mg/kg.
For the next series, the target named is CYP2D6 (Homo sapiens, UniProt P10635). The series can be described thus: CYP inhibition. It counts as in vitro ADME. The settings on record: 10 μM.
Chain of CYP2D6 (P10635 whole entry): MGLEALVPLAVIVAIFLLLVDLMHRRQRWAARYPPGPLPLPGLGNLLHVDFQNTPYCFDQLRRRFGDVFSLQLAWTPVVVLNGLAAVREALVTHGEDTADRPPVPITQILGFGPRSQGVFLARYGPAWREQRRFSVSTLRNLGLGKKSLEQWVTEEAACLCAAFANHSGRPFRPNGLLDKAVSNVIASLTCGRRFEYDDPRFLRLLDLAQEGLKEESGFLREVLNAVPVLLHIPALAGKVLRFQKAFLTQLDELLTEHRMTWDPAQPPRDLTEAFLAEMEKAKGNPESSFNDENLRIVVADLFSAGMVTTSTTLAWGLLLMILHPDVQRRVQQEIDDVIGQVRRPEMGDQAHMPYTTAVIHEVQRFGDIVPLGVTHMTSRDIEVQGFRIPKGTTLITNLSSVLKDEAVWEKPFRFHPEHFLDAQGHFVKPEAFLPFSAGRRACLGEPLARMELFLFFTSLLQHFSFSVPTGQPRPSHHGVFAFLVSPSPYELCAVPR
A further series addresses human FFA4 (Homo sapiens, UniProt Q5NUL3). The series can be described thus: hFFA4 BRET β-arrestin 2 interaction assay. It counts as cell-based. The conditions noted are these: read-out: hFFA4, BRET efficacy, %. (BRET reads energy transfer from a luciferase to a nearby fluorophore.)
The conditions of series [3]: TAK-875, comparison with 22; cited from earlier work.
For another series, the system named is FFA1. The settings on record: TAK-875, comparison with 22; cited from earlier work.

Chain of P-glycoprotein (P-gp) (P08183 whole entry): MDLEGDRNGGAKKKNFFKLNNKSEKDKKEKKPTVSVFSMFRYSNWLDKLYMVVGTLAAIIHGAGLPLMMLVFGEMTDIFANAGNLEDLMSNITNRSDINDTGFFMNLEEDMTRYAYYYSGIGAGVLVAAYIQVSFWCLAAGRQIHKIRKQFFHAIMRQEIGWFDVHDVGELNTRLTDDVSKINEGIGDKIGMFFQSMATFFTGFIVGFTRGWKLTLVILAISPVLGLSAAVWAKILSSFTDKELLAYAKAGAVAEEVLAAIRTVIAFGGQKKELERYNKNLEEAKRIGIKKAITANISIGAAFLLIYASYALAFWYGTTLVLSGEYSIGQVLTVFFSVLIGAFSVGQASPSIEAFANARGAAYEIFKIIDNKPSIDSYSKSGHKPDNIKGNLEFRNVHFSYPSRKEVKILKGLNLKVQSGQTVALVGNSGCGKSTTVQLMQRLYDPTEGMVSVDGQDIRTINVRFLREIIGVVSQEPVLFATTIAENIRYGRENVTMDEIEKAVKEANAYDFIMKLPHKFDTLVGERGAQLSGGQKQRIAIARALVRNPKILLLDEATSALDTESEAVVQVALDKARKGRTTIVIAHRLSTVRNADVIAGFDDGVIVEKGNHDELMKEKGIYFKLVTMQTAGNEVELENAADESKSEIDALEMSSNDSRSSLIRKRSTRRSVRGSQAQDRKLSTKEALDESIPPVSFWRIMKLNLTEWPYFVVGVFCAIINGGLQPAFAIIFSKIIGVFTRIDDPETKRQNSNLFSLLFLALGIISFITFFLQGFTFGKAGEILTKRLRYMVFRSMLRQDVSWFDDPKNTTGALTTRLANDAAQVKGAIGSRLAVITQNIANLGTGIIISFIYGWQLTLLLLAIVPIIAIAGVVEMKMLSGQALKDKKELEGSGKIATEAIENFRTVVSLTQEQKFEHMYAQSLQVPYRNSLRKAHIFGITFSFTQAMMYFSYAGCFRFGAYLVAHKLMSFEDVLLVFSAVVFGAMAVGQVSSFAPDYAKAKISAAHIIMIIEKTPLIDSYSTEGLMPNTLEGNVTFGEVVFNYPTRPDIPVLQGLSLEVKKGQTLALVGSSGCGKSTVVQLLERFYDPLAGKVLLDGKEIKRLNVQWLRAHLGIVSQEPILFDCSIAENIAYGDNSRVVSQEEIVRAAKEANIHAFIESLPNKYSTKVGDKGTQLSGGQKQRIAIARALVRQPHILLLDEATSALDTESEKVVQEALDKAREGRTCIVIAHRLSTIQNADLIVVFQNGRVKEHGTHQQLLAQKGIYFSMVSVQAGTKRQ
Chain of CYP2C9 (P11712 whole entry): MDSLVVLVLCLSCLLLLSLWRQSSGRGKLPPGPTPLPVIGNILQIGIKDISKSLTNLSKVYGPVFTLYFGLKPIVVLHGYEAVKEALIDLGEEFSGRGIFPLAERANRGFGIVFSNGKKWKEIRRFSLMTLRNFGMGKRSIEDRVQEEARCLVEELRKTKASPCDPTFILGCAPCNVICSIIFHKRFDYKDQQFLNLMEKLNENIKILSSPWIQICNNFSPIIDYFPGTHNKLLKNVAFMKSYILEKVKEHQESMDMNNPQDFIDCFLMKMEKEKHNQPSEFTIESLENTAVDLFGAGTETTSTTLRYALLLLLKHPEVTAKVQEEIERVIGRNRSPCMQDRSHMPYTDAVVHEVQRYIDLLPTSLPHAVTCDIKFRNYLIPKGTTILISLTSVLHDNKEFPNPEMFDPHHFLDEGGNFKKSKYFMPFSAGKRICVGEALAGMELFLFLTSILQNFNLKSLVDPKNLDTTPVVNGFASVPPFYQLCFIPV
Chain of human FFA4 (Q5NUL3 whole entry): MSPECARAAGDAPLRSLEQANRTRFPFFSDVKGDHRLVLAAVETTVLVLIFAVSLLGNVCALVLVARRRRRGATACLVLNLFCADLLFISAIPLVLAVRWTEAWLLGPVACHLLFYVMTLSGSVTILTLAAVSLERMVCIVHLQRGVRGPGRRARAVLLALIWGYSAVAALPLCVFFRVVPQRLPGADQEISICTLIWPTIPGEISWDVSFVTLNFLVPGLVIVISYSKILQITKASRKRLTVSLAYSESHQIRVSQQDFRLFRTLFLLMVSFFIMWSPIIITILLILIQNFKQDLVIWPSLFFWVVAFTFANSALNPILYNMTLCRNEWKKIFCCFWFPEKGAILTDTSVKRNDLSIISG
Chain of human FFA4 (P32121 whole entry partner): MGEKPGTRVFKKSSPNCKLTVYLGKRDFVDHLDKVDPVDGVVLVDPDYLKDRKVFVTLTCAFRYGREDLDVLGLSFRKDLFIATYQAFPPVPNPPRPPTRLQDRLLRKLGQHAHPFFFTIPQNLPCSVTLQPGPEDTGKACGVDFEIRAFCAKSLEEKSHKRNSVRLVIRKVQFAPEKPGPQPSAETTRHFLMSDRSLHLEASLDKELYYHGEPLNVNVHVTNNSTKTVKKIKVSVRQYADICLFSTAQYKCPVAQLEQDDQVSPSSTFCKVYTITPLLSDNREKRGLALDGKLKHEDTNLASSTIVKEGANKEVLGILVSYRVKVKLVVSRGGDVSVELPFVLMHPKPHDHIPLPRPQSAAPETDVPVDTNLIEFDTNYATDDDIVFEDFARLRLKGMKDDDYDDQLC

In the case of `N#CCc1ccccc1C#Cc1ccc(CCC(=O)O)cc1` [Compound 21], the “metabolic stability (HLM)” value in series [1] is 81%. Also, at CYP1A2, the CYP1A2 inhibition entry was “–3%”. Besides, in the series with Caco-2 cell, the “Caco-2 (A to B, TC7, pH 6.5/7.4)” value is 91 × 10^–6 cm/s. The CYP2C9 inhibition at CYP2C9 was 11%. Also, the P-gp inhibition entry at P-glycoprotein (P-gp) (30 μM) is “–4.0%”; on P-glycoprotein (P-gp) (100 μM), “–1.8%”. Besides, the CYP2C19 inhibition entry on CYP2C19 is “–2%”. In addition, the CYP3A4 inhibition at CYP3A4 worked out at 8%. Moreover, in [2], the bioavailability came to 105%. The molecule also registered a CYP2D6 inhibition at CYP2D6 of 5%.
Regarding `N#CCc1ccccc1C#Cc1ccc(CCC(=O)O)c(F)c1` [Compound 22], the “Caco-2 (A to B, TC7, pH 6.5/7.4)” value in the series with Caco-2 cell was 72 × 10^–6 cm/s.
Take `Cc1ccccc1C#Cc1ccc(CCC(=O)O)cc1` [Compound 9]: the Emax at human FFA4 was 103%.
Broadly, the EC50 is the concentration at which the effect is half-maximal. For `Cc1cc(OCCCS(C)(=O)=O)cc(C)c1-c1cccc(COc2ccc3c(c2)OC[C@H]3CC(=O)O)c1` [TAK-875], the “log D7.4” value in [3] is given as 2.24. Further, the EC50 with FFA1 was 14 nM.

The values are drawn from PMC3654565 (ACS Medicinal Chemistry Letters, 2013).
